{
  "source": "patent US12038433B2",
  "about": "“Methods and apparatus for high-throughput screening for testing permeability and retention of compounds across biological barriers” (Board of Regents, The University of Texas System, priority 2019, dated 2024)",
  "key": {"[1]": {"experiment": "96-well plate permeation study of doxycycline, skin measured with mass spec pen", "type": "in vitro ADME", "settings": "24 hours, different concentrations applied", "description": "A permeation study was done using the 96-well plates screening method over a course of 24 hours. Doxycycline at different concentrations was used as a model drug. After 24 hours, the receptor fluid was removed, and the plates were disassembled. The mass spec pen (described by Zhang et al. and Sans et al.) was used to measure the amount of doxycycline on the top layers of the skin (epidermis side) and on the bottom layers of the skin (dermis side) by flipping the skin upside down (26, 27)."}, "[2]": {"settings": "not tape-stripped; cited from earlier work"}, "[3]": {"experiment": "Permeation of SRB across tape-stripped skin, 96-well HTS compared with Franz cells, receptor fluid fluorescence", "type": "in vitro ADME, human", "settings": "SRB 0.5 mg/ml, 8 h, 32° C., p-value >0.05 (FIG. 7)", "excerpt": "“The 96-well plates, with and without bottom, were modified by inserting 2 symmetric and parallel holes in each side of the plate using a drill. The holes were made in order to attach the plates together as a sandwich. The skin was tape-stripped 15 times, rubbing with a thumb three times before each strip (in the same manner as for the Franz cells). Tape-stripping was necessary to allow for drug permeation across the skin and direct quantification in the receptor compartment. […] The receptor fluid analysis was needed to compare permeability of SRB between methods (FC and HTS).”\n“The 96-well plate with the bottom was used as the receptor compartment. The volume of each well is 380 μL and the area of diffusion is 0.38 cm^2. The receptor compartment was overfilled with degassed PBS (pH=7.4) to avoid the formation of any bubbles that would hinder drug permeation. […]\nThe plate was incubated at 32° C. for 1 h. […] After 8 h, the plates were disassembled and the receptor plate was analyzed using a spectrophotometer (Infinite M200 microplate reader, TECAN US Inc, NC, USA) for the quantification of fluorescence intensity (λexcitation=550 nm and λemission=590 nm). Standard solutions of SRB in PBS (pH=7.4) in the range of 500-0.03 μg/ml were prepared and the fluorescence intensity was measured to obtain the calibration curve. […]"}, "[4]": {"experiment": "HTS formulation screening, retention of SRB in skin layers by 2 photon microscopy (3x2x3 full factorial design)", "type": "in vitro ADME, human", "description": "(§1) Two bottomless 96-well plates from Greiner bio-one were used.\n(§2) The receptor plate was sealed with an adhesive film and overfilled with PBS (pH=7.4).\n(§3) An 8×9 cm of skin tissue was placed on top of the receptor plate, dermis side in contact with the receptor fluid and stratum corneum up. The donor plate was placed on top of the skin. A 4 kg weight was placed on top and nuts were attached to the plate.\n(§4) This sandwich was incubated for 1 hour at 32 deg C. and 75 rpm. After 1 hour, the formulations prepared in Table 1 and containing 0.5 mg/ml of SRB as a model hydrophilic drug were applied in triplicate to the donor wells.\n(§5) The receptor compartment was analyzed by fluorescence using a plate reader and the skin was analyzed using 2 photon microscopy, the same way as described in Example 4. Images were collected at 256×256 pixels and 223.78 μm×223.78 μm. The z-axis profile was obtained by acquiring images at every 10 μm down the skin, up to 200 μm. The detailed 2-photon analysis utilized in this study took approximately 2 h (around a minute to 2 min for each well).\nA 3×2×3 full factorial design was used to design the experiment and statistically analyze the differences in permeation and retention of the formulations applied in the skin."}, "[5]": {"experiment": "Feasibility in vitro permeation study using squared and flat 384-well plates", "type": "in vitro ADME", "settings": "8 h, between the 0.5 mg/ml SRB and the 0.05 mg/ml SRB applied, lateral diffusion present", "description": "Feasibility studies were conducted using squared and flat 384-well plates with no ridges or projected wells. The plates were assembled the same way as presented in Example 4. […] […] […] Samples were taken after 8 h and measured using fluorescence in a plate reader."}, "[6]": {"experiment": "HTS formulation screening, permeability of SRB across the skin into the receptor fluid (plate reader fluorescence)", "type": "in vitro ADME, human", "settings": "not statistically significant (FIG. 10 E)", "description": "as §1, §2, §3, §4, §5"}, "[7]": {"experiment": "Skin retention analysis of SRB by two-photon-induced fluorescence imaging (FC vs HTS)", "type": "in vitro ADME, human", "settings": "surface down to 150 μm, after 8 h (FIG. 8)", "excerpt": "A two-photon-induced fluorescence imaging was used to determine the retention of SRB in the skin using a Prairie Technologies Ultimalntravital 2PA confocal microscope system (Park et al., 2008; Denk et al., 1990). The microscope objective was an Olympus® 10×, 0.30 NA, UMPlanFL N water immersion lens. Two-photon laser excitation was provided by a Spectra-Physics Tsunami® Ti:Sapphire laser with a τP=150 fs and P=108 mW. The laser was tuned to 1000 nm, since SRB excites at 550 nm and no skin autofluorescence is observed at this wavelength. Four fluorescence channels were detected simultaneously during imaging. The photomultiplier tube (PMT) bias voltages for each channel were set to 650 V for channel 1, 650 V for channel 2 (where SRB is detected), 800 V for channel 3 (where we can measure the autofluorescence of the skin), and 800 V for channel 4. Skin autofluorescence or second harmonic generation of collagen were detected in channels 3 and 4, respectively (Roberts et al., 2011). The fluorescence emission of SRB was recorded in channel 2 (λ=595±35 nm) since the wavelength of emission for SRB is 590 nm. Skin images were recorded above the surface of the skin and the maximum fluorescence intensity was considered to be the top layer or surface of the skin since excess of formulation was still present at the top of the skin at the end of the permeation study (8 h). […]"}},
  "data": [
    {"smiles": "C[C@H]1c2cccc(O)c2C(=O)C2=C(O)[C@]3(O)C(=O)C(C(N)=O)=C(O)[C@@H](N(C)C)[C@@H]3[C@@H](O)[C@@H]21", "note": "[Doxycycline]", "values": [
      {"measurement": "permeation, amount on top (epidermis side) and bottom (dermis side) layers of the skin", "setting": "[1]", "value": "Changes in permeation were detected"}
    ]},
    {"smiles": "CCN(CC)c1ccc2c(-c3ccc(S(=O)(=O)O)cc3S(=O)(=O)[O-])c3ccc(=[N+](CC)CC)cc-3oc2c1", "note": "[SRB, Sulforhodamine B]", "values": [
      {"measurement": "permeation across intact skin", "setting": "[2]", "value": "unable to permeate intact skin"},
      {"measurement": "permeation and distribution of the drug, Franz cells (FC) vs HTS", "setting": "[3]", "value": "almost identical"},
      {"measurement": "amount of SRB inside the skin", "setting": "[4]; 5% and 2.5% surfactant concentration compared to no surfactant, post hoc analysis", "value": "increases the amount of SRB inside the skin"},
      {"measurement": "amount of the model drug in the skin layers", "setting": "[4]; DMSO alone compared to 50:50 mixture of DMSO:Propylene glycol", "value": "enhances the amount of the model drug in all the skin layers"},
      {"measurement": "amount of SRB into the skin", "setting": "[4]; DMSO compared to Propylene glycol alone, only at lower depths (100-150 micrometers)", "value": "significantly enhance the amount of SRB into the skin"},
      {"measurement": "amount of drug inside the skin", "setting": "[4]; OA (oleic acid) in the formulation, PG solvent (FIG. 10 A, B)", "value": "increased the amount of drug inside the skin"},
      {"measurement": "amount of SRB inside the skin", "setting": "[4]; increasing the concentration of Tween 80, PG solvent (FIG. 10 C, D)", "value": "increased the amount of SRB inside the skin"},
      {"measurement": "Statistically significant variables on the amount of SRB retained", "setting": "[4]; skin depth 0 μm, solvent ratio factor", "value": "Solvent ratio (*)"},
      {"measurement": "Statistically significant variables on the amount of SRB retained", "setting": "[4]; skin depth 0 μm, surfactant concentration factor", "value": "Surfactant concentration (**)"},
      {"measurement": "Statistically significant variables on the amount of SRB retained", "setting": "[4]; skin depth 20 μm, solvent ratio factor", "value": "Solvent ratio (**)"},
      {"measurement": "Statistically significant variables on the amount of SRB retained", "setting": "[4]; skin depth 20 μm, surfactant concentration factor", "value": "Surfactant concentration (*)"},
      {"measurement": "Statistically significant variables on the amount of SRB retained", "setting": "[4]; skin depth 100 μm, solvent ratio factor", "value": "Solvent ratio (**)"},
      {"measurement": "Statistically significant variables on the amount of SRB retained", "setting": "[4]; skin depth 100 μm, surfactant concentration factor", "value": "Surfactant concentration (*)"},
      {"measurement": "Statistically significant variables on the amount of SRB retained", "setting": "[4]; skin depth 150 μm", "value": "Solvent ratio (**)"},
      {"measurement": "permeability of SRB across the skin", "setting": "[5]", "value": "changed"},
      {"measurement": "amount of drug across the skin, into the receptor solution", "setting": "[6]; OA (oleic acid) in the formulation", "value": "also across the skin"},
      {"measurement": "amount of SRB across the skin", "setting": "[6]; increasing the concentration of Tween 80", "value": "not across the skin"},
      {"measurement": "depth profile/Z-axis profile, relative change in fluorescence intensity over every 5 μm depth in the skin, FC vs HTS", "setting": "[7]", "value": "similar"}
    ]}
  ]
}
